Legend:
Type in all cases: cell-based, human
PIM1 = PIM1 expression after SSO-PIM2 treatment; conditions: 2 μM
plasmablasts (PB) = test: Generation of plasmablasts at D6 in the in vitro B cell differentiation model (flow cytometry); conditions: SSO at 2 μM added at D4
Procedure: (§1) FIG. 1. Specific PIM2 inhibition affects the generation of plasmablasts • A. Diagram explaining SSO-PIM2 action. It binds to the second exon of the gene PIM2 leading in a skip of this exon during transcription and finally results to a frame shift and created an early stop-codon during translation. The protein is so a non-functional truncated protein. • B. Activated B cells were treated at D4 with an increasing dose of SSO-PIM2 and SSO-CTL (control condition) and recovered 48 hours later (at D6). PIM2 mRNA residual expression compared to the control condition adjust at 100% (mean±SD, n=3) and agarose gel of PIM2 PCR, showing exon skipping. • C. At D4, activated B cells were treated with SSO-PIM2 and SSO-CTL (control condition) at 2 μM. CD23+ aBC and PB were sorted at D6. PIM2 mRNA relative expression (mean±SD, n=4) (left) and PIM2 protein expression by western blot (middle) and immunofluorescence (right) after PIM2 inhibition. • D-E. Decrease of PB generation after PIM2 inhibition. Cells were treated with SSO-PIM2 at 2 μM (D) or increase dose of the PIM inhibitor AZD1208 (PIMi as indicated, in μM) (E) and their control condition (SSO-CTL and DMSO respectively). The untreated condition is referred as “NT” (=no treatment). Left: Absolute number of PB obtained at D6 after PIM2 inhibition. […] Right: Proportion of PB evaluated at D6 by flow cytometry after treatment with SSO-PIM2 at 2 μM. […]

[1] = system: IRF4, PRDM1, XBPIS, BACH2, BCL6, SPIB, IRF8 and PAX5; test: Transcription factor mRNA relative expression in generated PBs; conditions: SSO-PIM2 present
Procedure: as §1

PIM2 = PIM2 expression in in vitro differentiated activated B cells / plasmablasts after SSO treatment (mRNA, PCR, western blot, immunofluorescence)
Procedure: FIG. 1. Specific PIM2 inhibition affects the generation of plasmablasts • A. Diagram explaining SSO-PIM2 action. It binds to the second exon of the gene PIM2 leading in a skip of this exon during transcription and finally results to a frame shift and created an early stop-codon during translation. The protein is so a non-functional truncated protein. • B. Activated B cells were treated at D4 with an increasing dose of SSO-PIM2 and SSO-CTL (control condition) and recovered 48 hours later (at D6). PIM2 mRNA residual expression compared to the control condition adjust at 100% (mean±SD, n=3) and agarose gel of PIM2 PCR, showing exon skipping. • C. At D4, activated B cells were treated with SSO-PIM2 and SSO-CTL (control condition) at 2 μM. CD23+ aBC and PB were sorted at D6. PIM2 mRNA relative expression (mean±SD, n=4) (left) and PIM2 protein expression by western blot (middle) and immunofluorescence (right) after PIM2 inhibition. • D-E. Decrease of PB generation after PIM2 inhibition. Cells were treated with SSO-PIM2 at 2 μM (D) or increase dose of the PIM inhibitor AZD1208 (PIMi as indicated, in μM) (E) and their control condition (SSO-CTL and DMSO respectively). The untreated condition is referred as “NT” (=no treatment). Left: Absolute number of PB obtained at D6 after PIM2 inhibition. Data are representative with bars at mean±SD, n=6. Right: Proportion of PB evaluated at D6 by flow cytometry after treatment with SSO-PIM2 at 2 μM. Data are representative of six independent experiments. • F. Transcription factors (IRF4, PRDM1, XBPIS, BACH2, BCL6, SPIB, IRF8 and PAX5) mRNA relative expression after specific PIM2 inhibition. Data are representative with bars at mean±SD, n=4.
To identify genes whose transcription was acutely regulated during the final commitment step we developed our previously described in vitro differentiation model system on human naive B cells (NBCs) giving at day-6 (D6) four cell populations that were explored transcriptionally (data not shown) (Caron et al., 2015; Le Gallou et al., 2012; Pignarre et al., 2021). […]

p21^Cip1/WAF1 = test: CDKN1A gene and p21^Cip1/WAF1 protein expression in PBs
Excerpt: Like p27^Kip1, p21^Cip1/WAF1 is a tight-binding inhibitor of CDKs and inhibits cell cycle entry into S phase (Elledge et al., 1996). Plasmablast commitment leads to a significant increase of the CDKN1A gene, which encodes p21^Cip1/WAF1, and this independently to the expression of TP53 (data not shown). […] We then wondered whether PIM2 could modify p21^Cip1/WAF1 expression. […] To address this scenario, we developed endogenous protein immunoprecipitation (IP) and found in generated PBs and XG21 cell line as well that PIM2, p21^Cip1/WAF1 and HSP90β form a cytoplasmic multiprotein complex (data not shown).

In the case of “5′-CCTCATGACGGATACCTGGAGTC-3′ (all phosphorodiamidate morpholino (PMO)) [SSO-PIM2]”, the “effect on PIM1 expression” value (PIM1) is reported as “without affecting PIM1 expression”, the “generated PB at D6” value (plasmablasts (PB)) is reported as “severe decrease in generated PB” and the “expression of key transcription factors involved in B cell differentiation in generated PBs” value [1] is reported as “not affected”. The PIM2 knockdown (PIM2; 2 μM) was “near-knockout condition for PIM2”, the “duration of PIM2 near-knockout” value (PIM2; 2 μM) was “up to 96 h” and the “inhibition of PIM2 expression” value (PIM2; D6 collected PBs, increasing dose added at D4, 48 hours) was “dose-dependent inhibition of PIM2 expression”. The “CDKN1A gene upregulation in PBs” value (p21^Cip1/WAF1) was “did not interfere with CDKN1A gene upregulation” and the “p21^Cip1/WAF1 protein expression and localization” value (p21^Cip1/WAF1; PBs) was “decreased dramatically its cytoplasmic expression without nuclear relocalization”.

Source: patent US20240368605A1, “USE OF SPLICE SWITCHING OLIGONUCLEOTIDES FOR EXON SKIPPING-MEDIATED KNOCKDOWN OF PIM2” (INSTITUT NATIONAL DE LA SANTÉ ET DE LA RECHERCHE MÉDICALE, priority 2021, published 2024)
